The values that follow come from ChEMBL document CHEMBL3045727, “Synthesis of some new thiazolopyrane and thiazolopyranopyrimidine derivatives bearing a sulfonamide moiety for evaluation as anticancer and radiosensitizing agents” (Med Chem Res, 2012).

For experiment [1], the system named is HepG2. Kind of experiment: Cytotoxicity against Homo sapiens (human) HepG2 cells assessed as cell surviving fraction at 10 uM after 48 hr followed by gamma-radiation at dose level of 8 Gy by SRB assay. The format is functional. On the technique in general: In SRB staining, fixed cells bind dye roughly in proportion to their protein.
Experiment [2] concerns HepG2. Kind of experiment: Cytotoxicity against Homo sapiens (human) HepG2 cells assessed as cell surviving fraction at 100 uM after 48 hr by SRB assay. The format is functional.
In experiment [3] the test system is HepG2. Description: Cytotoxicity against Homo sapiens (human) HepG2 cells assessed as cell surviving fraction at 50 uM after 48 hr followed by gamma-radiation at dose level of 8 Gy by SRB assay. The format is functional.
Experiment [4] has as its system HepG2. Description: Cytotoxicity against Homo sapiens (human) HepG2 cells after 48 hr followed by gamma-radiation at dose level of 8 Gy by SRB assay. The note with it: HepG2, 48 h. The format is functional, cell-based.
Experiment [5] has as its system HepG2. Description: Cytotoxicity against Homo sapiens (human) HepG2 cells assessed as cell surviving fraction at 50 uM after 48 hr by SRB assay. The format is functional.
The subject of experiment [6] is HepG2. Kind of experiment: Cytotoxicity against Homo sapiens (human) HepG2 cells assessed as cell surviving fraction at 100 uM after 48 hr followed by gamma-radiation at dose level of 8 Gy by SRB assay. The format is functional.
The test system of experiment [7] is HepG2. Description: Cytotoxicity against Homo sapiens (human) HepG2 cells assessed as cell surviving fraction at 25 uM after 48 hr by SRB assay. The format is functional.
Experiment [8] deals with HepG2. Kind of experiment: Cytotoxicity against Homo sapiens (human) HepG2 cells after 48 hr by SRB assay. The format is functional, cell-based. As to conditions: HepG2, 48 h.
Experiment [9] relates to HepG2. Kind of experiment: Cytotoxicity against Homo sapiens (human) HepG2 cells assessed as cell surviving fraction at 10 uM after 48 hr by SRB assay. The format is functional.
Experiment [10] concerns HepG2. Kind of experiment: Cytotoxicity against Homo sapiens (human) HepG2 cells assessed as cell surviving fraction at 25 uM after 48 hr followed by gamma-radiation at dose level of 8 Gy by SRB assay. The format is functional.

In the case of `NS(=O)(=O)c1ccc(NC2=NC(=O)CS2)cc1`, the Ratio in the experiment on HepG2 [1] is reported as 0.53; with HepG2 [2], 0.231; with HepG2 [3], 0.12; in the experiment with HepG2 [5], 0.168; in the experiment with HepG2 [6], 0.12; with HepG2 [7], 0.501. Moreover, the results for the Ratio in the experiment with HepG2 [9] and with HepG2 [10] were 0.848 and 0.48, respectively. The concentration for half-maximal inhibition (IC50) – broadly, the concentration at which inhibition is half-maximal – came out at 30 µM in the experiment with HepG2 [4] and 43 µM in the experiment with HepG2 [8].
In the case of `N#CC1=C(N)Oc2nc(Nc3ccc(S(N)(=O)=O)cc3)sc2C1c1ccc([N+](=O)[O-])cc1` (stereo not drawn), the Ratio in the experiment on HepG2 [2] came out at 0.312; in the experiment on HepG2 [5], 0.376; with HepG2 [7], 0.767; in the experiment on HepG2 [9], 0.846. Also, in the experiment with HepG2 [8], the IC50 came out at 60 µM.
With `COc1ccc(C2C(C#N)=C(N)Oc3nc(Nc4ccc(S(N)(=O)=O)cc4)sc32)cc1OC` (stereo not drawn), the Ratio in the experiment with HepG2 [2] is given as 0.672; in the experiment on HepG2 [5], 0.64; with HepG2 [7], 0.564; with HepG2 [9], 0.628.
`N#CC1=C(N)Oc2nc(Nc3ccc(S(N)(=O)=O)cc3)sc2C1c1ccccc1Cl` (stereo not drawn): the Ratio in the experiment with HepG2 [2] is on record as 0.655; with HepG2 [5], 0.582; in the experiment with HepG2 [7] it was 0.861; with HepG2 [9] it was 0.909.
`N#CC1=C(N)Oc2nc(Nc3ccc(S(N)(=O)=O)cc3)sc2C1c1cccc(Br)c1` (stereo not drawn): the Ratio came to 0.509 in the experiment with HepG2 [2], 0.388 in the experiment on HepG2 [5], 0.564 in the experiment on HepG2 [7] and 0.846 in the experiment on HepG2 [9]. For the same compound, in the experiment on HepG2 [8], half-maximal inhibition (IC50) required 72 µM.
Consider `Nc1ncnc2c1C(c1ccc([N+](=O)[O-])cc1)c1sc(Nc3ccc(S(N)(=O)=O)cc3)nc1O2` (stereo not drawn), for which the Ratio turned out to be 0.489 in the experiment with HepG2 [2], 0.287 with HepG2 [5], 0.605 in the experiment with HepG2 [7] and 0.814 in the experiment with HepG2 [9]. In addition, in the experiment on HepG2 [8], half-maximal inhibition (IC50) required 65 µM.
For `NS(=O)(=O)c1ccc(Nc2nc3c(s2)C(c2ccc([N+](=O)[O-])cc2)c2c(nc[nH]c2=O)O3)cc1` (stereo not drawn), the Ratio in the experiment on HepG2 [1] is on record as 0.41; in the experiment on HepG2 [2], 0.015; in the experiment on HepG2 [3], 0.12; in the experiment with HepG2 [5], 0.168; with HepG2 [6] it was 0.14; in the experiment with HepG2 [7] it was 0.498. The Ratio with HepG2 [9] is on record as 0.625; in the experiment with HepG2 [10] it was 0.22. For the same compound, the 50% inhibitory concentration (IC50) in the experiment on HepG2 [4] is 18 µM; in the experiment with HepG2 [8], 36 µM.
With `COc1ccc(C2c3sc(Nc4ccc(S(N)(=O)=O)cc4)nc3Oc3nc[nH]c(=O)c32)cc1OC` (stereo not drawn), the Ratio in the experiment on HepG2 [2] was 0.127; in the experiment on HepG2 [5] it was 0.164; in the experiment on HepG2 [7], 0.446; in the experiment with HepG2 [9], 0.561. The compound also came in with an IC50 with HepG2 [8] of 32 µM.
Turning to `Cc1nc2c(c(=O)[nH]1)C(c1ccc([N+](=O)[O-])cc1)c1sc(Nc3ccc(S(N)(=O)=O)cc3)nc1O2` (stereo not drawn), the Ratio with HepG2 [2] was determined as 0.213; with HepG2 [5] it was 0.301; with HepG2 [7], 0.498; with HepG2 [9], 0.764. The compound further returned an IC50 with HepG2 [8] of 45 µM.
Take `COc1ccc(C2c3sc(Nc4ccc(S(N)(=O)=O)cc4)nc3Oc3nc(C)[nH]c(=O)c32)cc1OC` (stereo not drawn): the Ratio in the experiment with HepG2 [1] was determined as 0.31; in the experiment on HepG2 [2], 0.115; in the experiment with HepG2 [3], 0.1; in the experiment on HepG2 [5], 0.118; in the experiment with HepG2 [6] it was 0.11; with HepG2 [7] it was 0.477. In addition, the Ratio in the experiment with HepG2 [9] was 0.529; with HepG2 [10] it was 0.12. Further, the results for the IC50 in the experiment with HepG2 [4] and in the experiment with HepG2 [8] were 8 µM and 30 µM, respectively.
As for `Nc1nc(=O)[nH]c2c1C(c1ccc([N+](=O)[O-])cc1)c1sc(Nc3ccc(S(N)(=O)=O)cc3)nc1O2` (stereo not drawn), the Ratio in the experiment on HepG2 [2] turned out to be 0.262; with HepG2 [5], 0.244; in the experiment with HepG2 [7], 0.487; in the experiment with HepG2 [9], 0.779. The same compound registered an IC50 with HepG2 [8] of 45 µM.
As for `Nc1nc(=S)[nH]c2c1C(c1ccc([N+](=O)[O-])cc1)c1sc(Nc3ccc(S(N)(=O)=O)cc3)nc1O2` (stereo not drawn), the Ratio with HepG2 [2] is recorded as 0.246; in the experiment with HepG2 [5] it was 0.284; in the experiment on HepG2 [7] it was 0.432; in the experiment on HepG2 [9], 0.615. In addition, the IC50 in the experiment on HepG2 [8] was determined as 39 µM.
For `N#CC1=C(N2C(=O)CCC2=O)Oc2nc(Nc3ccc(S(N)(=O)=O)cc3)sc2C1c1ccc([N+](=O)[O-])cc1` (stereo not drawn), in that order: 0.231, 0.342, 0.474, 0.71 and 45 µM.
For `N#CC1=C(NC(=O)CCC(=O)O)Oc2nc(Nc3ccc(S(N)(=O)=O)cc3)sc2C1c1ccc([N+](=O)[O-])cc1` (stereo not drawn), the Ratio was determined as 0.36 in the experiment with HepG2 [1]; 0.166 in the experiment on HepG2 [2]; 0.11 in the experiment on HepG2 [3]; 0.127 in the experiment on HepG2 [5]; 0.13 with HepG2 [6]; 0.382 in the experiment with HepG2 [7]. Besides, the Ratio with HepG2 [9] was determined as 0.626; in the experiment with HepG2 [10], 0.23. Moreover, the IC50 in the experiment on HepG2 [4] is 15 µM; in the experiment on HepG2 [8] it was 32 µM.
Take `CC(=O)CC(=O)NC1=C(C#N)C(c2ccc([N+](=O)[O-])cc2)c2sc(Nc3ccc(S(N)(=O)=O)cc3)nc2O1` (stereo not drawn): the Ratio in the experiment with HepG2 [2] was 0.299; with HepG2 [5], 0.206; in the experiment on HepG2 [7], 0.456; with HepG2 [9], 0.546. For the same compound, the IC50 in the experiment on HepG2 [8] amounted to 37 µM.
Take `COc1ccc(C2c3sc(Nc4ccc(S(N)(=O)=O)cc4)nc3Oc3[nH]c(=S)n(-c4ccccc4)c(=N)c32)cc1OC` (stereo not drawn): the Ratio in the experiment with HepG2 [1] is given as 0.4; with HepG2 [2], 0.137; with HepG2 [3], 0.12; in the experiment on HepG2 [5] it was 0.128; in the experiment with HepG2 [6] it was 0.13; with HepG2 [7], 0.434. Further, the values for the Ratio with HepG2 [9] and in the experiment on HepG2 [10] were 0.593 and 0.21, respectively. Also, the IC50 in the experiment with HepG2 [4] came to 17 µM; in the experiment on HepG2 [8] it was 31 µM.
On to `COc1cccc2c1C(=O)c1c(O)c3c(c(O)c1C2=O)C[C@@](O)(C(=O)CO)C[C@@H]3O[C@H]1C[C@H](N)[C@H](O)[C@H](C)O1` [DOXORUBICIN], for which the Ratio with HepG2 [2] is recorded as 0.125; in the experiment on HepG2 [5], 0.122; with HepG2 [7], 0.479; in the experiment with HepG2 [9], 0.537. For the same compound, the IC50 with HepG2 [8] turned out to be 32 µM.
